{"source": "patent US8779004B2", "about": "“Stable emulsion formulations” (Amgen, Inc., priority 2006, dated 2014)", "key": {"rabbit ear vein": {"test_system": "rabbit ear vein", "experiment": "Acute local venous toxicity / irritation in the rabbit ear vein (REV)", "format": "in vivo", "design": "Erythema / Edema: scale not given here", "excerpt": "This Example illustrates the protective effect of the formulations of the invention as measured by irritation in the rabbit ear vein (REV). A typical protocol for evaluation of the local tolerance for formulations was as follows.\nDosing of animals. The rabbits used were male New Zealand rabbits weighing approximately 2.5 to 4 kg. The rabbits were acclimatized for a period of 10 days following receipt before the start of the study. The rabbits were randomized into groups based on the number of formulations to be studied. Typically 3 rabbits were used per group.\nFor each group of rabbits, the formulation containing the drug to be tested was dosed in the right marginal ear vein, with the corresponding placebo being dosed at the same time in the left marginal ear vein. The placebos were prepared such that they matched the formulation composition, and the technique of dosing for the drug formulations and the placebo formulations were kept the same. Typical dosing volumes ranged from 1 mL/kg to 5 mL/kg. The formulations were either dosed as (a) bolus injection wherein the entire dosing volume was administered within 5 minutes; (b) 30 minute infusion; or (c) a 2 hour infusion. The formulations were administered through appropriately sized syringes and catheters. The injection sites were marked with indelible ink for identification at each observation period. The rabbits were dosed based upon the Day 1 body weight.\nObservation of animals. Each animal was observed cage side at least twice daily for mortality/morbundity. Each animal received a detailed clinical observation once prior to randomization, once prior to dosage administration and once daily thereafter.\nAny abnormalities were recorded as they were observed. Observations for local irritation were scored according to the following scale\nAt each interval the area of irritation (if present) was also measured. The actual length and width in mm was recorded.\nOn day 3 the animals were euthanized and the tissues from the Pinna of the left and right ear, and any gross lesions (if present) of the ear or ear vein were collected. Histopathology was performed on the collected tissues. After fixation, the pinna was tripped into a total of 4 sections of 1 cm each; one of which included the deposition site (location of the end of the catheter in the ear) and one from approximately 1-, 2-, and 3-cm downstream from the deposition site. Each section included skin, cartilage, vein and other soft tissue. These tissues were then embedded in paraffin, sectioned and stained with hematoxylin and eosin, and examined via light microscopy."}, "[1]": {"experiment": "Zeta-potential vs pH of cinacalcet emulsions containing sodium oleate", "format": "physicochemical", "conditions": "cinacalcet emulsion; for pH at which charge is zero: from linear regression line; for zeta-potential: in mV (unit assumed)", "description": "Preparation of Each Emulsion: the Emulsion were Prepared Using Substantially the same method as discussed above in Example 2 under “Laboratory scale preparation.” Briefly, the aqueous phase was prepared by adding appropriate amounts of glycerin and water to an appropriate container. The glycerin and water were mixed well and maintained at elevated temperatures (60-70° C.) by immersing the container in a water batch.\nThe oil phase was prepared by adding appropriate oil and lecithin. The container was tared and the cinacalcet free base was added. Appropriate quantity of sodium oleate (between 0-1%) was added to this oil phase mixture. The oil/lecithin/cinacalcet mixture was mixed at an elevated temperature using sonicater probes to disperse/dissolve the lecithin, the Cinacalcet free base and the sodium oleate.\nThe hot oil phase was transferred to the aqueous phase at elevated temperatures and homogenized to obtain coarse emulsion. Fine emulsion was obtained using a microfluidizer.\nCharge Measurement: Zeta-potential as a function of pH was determined using a Malvern Zetasizer Nano Series Model ZEN 3600 laser-scattering particle electrophoretic analyzer that measures the electrophoretic mobility and zeta potential distribution. Samples were prepared for the zeta potential titration by diluting each emulsion approximately 2500-fold in water. The pH of this mixture was noted after dilution, and then adjusted to a pH 9 using sodium hydroxide. The pH was then titrated down to pH 6 in 0.3 or 0.5 unit steps. Zeta potential measurements were taken at every step. The zeta-potential of each emulsion was plotted as a function of pH and fit to a linear regression line."}, "[2]": {"conditions": "emulsion with DEA buffer 0.05%, pH 9, Bolus dose, 2 mg/kg (conc. 10 mg/mL), 0 h"}, "[3]": {"conditions": "emulsion with DEA buffer 0.05%, pH 9, Bolus dose, 2 mg/kg (conc. 10 mg/mL), 48 h"}, "[4]": {"conditions": "emulsion with TRIS buffer 5 mM, pH 9, Bolus dose, 2 mg/kg (conc. 10 mg/mL), 0 h"}, "[5]": {"conditions": "emulsion with TRIS buffer 5 mM, pH 9, Bolus dose, 2 mg/kg (conc. 10 mg/mL), 48 h"}, "[6]": {"conditions": "emulsion with TRIS buffer 20 mM, pH 9, 2-hour infusion, 2 mg/kg (conc. 0.5 mg/mL), 0 h"}, "[7]": {"conditions": "emulsion with TRIS buffer 20 mM, pH 9, 2-hour infusion, 2 mg/kg (conc. 0.5 mg/mL), 48 h"}, "[8]": {"conditions": "solution in acetate mannitol buffer, pH 4, 2 hour infusion, 2 mg/kg (conc. 0.5 mg/mL), 0 h"}, "[9]": {"conditions": "solution in acetate mannitol buffer, pH 4, 2 hour infusion, 2 mg/kg (conc. 0.5 mg/mL), 48 h"}, "[10]": {"conditions": "solution in acetate mannitol buffer, pH 4, Bolus dose, 2 mg/kg (conc. 0.5 mg/mL), 0 h"}, "[11]": {"conditions": "solution in acetate mannitol buffer, pH 4, Bolus dose, 2 mg/kg (conc. 0.5 mg/mL), 48 h"}, "[12]": {"conditions": "solution in acetate mannitol buffer, pH 4, Bolus dose, 2 mg/kg (conc. 1 mg/mL), 0 h"}, "[13]": {"conditions": "solution in acetate mannitol buffer, pH 4, Bolus dose, 2 mg/kg (conc. 1 mg/mL), 48 h"}}, "data": [{"smiles": "C[C@@H](NCCCc1cccc(C(F)(F)F)c1)c1cccc2ccccc12", "note": "[Cinacalcet, N-(1-(R)-(1-naphthyl)ethyl]-3-[3-(trifluoromethyl)phenyl]-1-aminopropane]", "values": [{"measurement": "local venous toxicity", "setting": "rabbit ear vein; administered IV as a solution, acetate mannitol buffer at pH 4", "result": "mild to moderate"}, {"measurement": "local venous toxicity effects", "setting": "rabbit ear vein; cinacalcet-containing emulsions, compared with solution", "result": "greatly reduced or completely eliminated"}, {"measurement": "tolerability", "setting": "rabbit ear vein; emulsion buffered with either TRIS or DEA, dosed as bolus", "result": "well tolerated"}, {"measurement": "tolerability", "setting": "rabbit ear vein; emulsion containing TRIS dosed as an infusion", "result": "well tolerated"}, {"measurement": "Edema", "setting": "rabbit ear vein; [2]", "result": "0.0 ± 0.0"}, {"measurement": "Erythema", "setting": "rabbit ear vein; [2]", "result": "0.3 ± 0.6"}, {"measurement": "Edema", "setting": "rabbit ear vein; [3]", "result": "0.0 ± 0.0"}, {"measurement": "Erythema", "setting": "rabbit ear vein; [3]", "result": "0.0 ± 0.0"}, {"measurement": "Histopathology", "setting": "rabbit ear vein; emulsion with DEA buffer 0.05%, pH 9, Bolus dose, observed for both placebo and cinacalcet emulsions", "result": "Mild to moderate perivascular acute"}, {"measurement": "Edema", "setting": "rabbit ear vein; [4]", "result": "0.0 ± 0.0"}, {"measurement": "Erythema", "setting": "rabbit ear vein; [4]", "result": "0.0 ± 0.0"}, {"measurement": "Edema", "setting": "rabbit ear vein; [5]", "result": "0.0 ± 0.0"}, {"measurement": "Erythema", "setting": "rabbit ear vein; [5]", "result": "0.0 ± 0.0"}, {"measurement": "Histopathology", "setting": "rabbit ear vein; emulsion with TRIS buffer 5 mM, pH 9, Bolus dose, observed for both placebo and cinacalcet emulsions", "result": "Minimal to mild perivascular acute"}, {"measurement": "Histopathology", "setting": "rabbit ear vein; emulsion with TRIS buffer 20 mM, pH 9, 2-hour infusion, 2 mg/kg (conc. 0.5 mg/mL)", "result": "lipid emulsion was well tolerated as a 2 hour"}, {"measurement": "Edema", "setting": "rabbit ear vein; [6]", "result": "0.0 ± 0.0"}, {"measurement": "Erythema", "setting": "rabbit ear vein; [6]", "result": "0.0 ± 0.0"}, {"measurement": "Edema", "setting": "rabbit ear vein; [7]", "result": "0.0 ± 0.0"}, {"measurement": "Erythema", "setting": "rabbit ear vein; [7]", "result": "0.0 ± 0.0"}, {"measurement": "Histopathology", "setting": "rabbit ear vein; solution in acetate mannitol buffer, pH 4, 2 hour infusion, 2 mg/kg (conc. 0.5 mg/mL)", "result": "mild to severe acute, necrotizing inflammation"}, {"measurement": "Edema", "setting": "rabbit ear vein; [8]", "result": "0.0 ± 0.0"}, {"measurement": "Erythema", "setting": "rabbit ear vein; [8]", "result": "0.0 ± 0.0"}, {"measurement": "Edema", "setting": "rabbit ear vein; [9]", "result": "3.3 ± 1.2"}, {"measurement": "Erythema", "setting": "rabbit ear vein; [9]", "result": "4.0 ± 0.0"}, {"measurement": "Histopathology", "setting": "rabbit ear vein; solution in acetate mannitol buffer, pH 4, Bolus dose, 2 mg/kg", "result": "Mnimal to mild infiltrates of mixed"}, {"measurement": "Edema", "setting": "rabbit ear vein; [10]", "result": "0.0 ± 0.0"}, {"measurement": "Erythema", "setting": "rabbit ear vein; [10]", "result": "0.0 ± 0.0"}, {"measurement": "Edema", "setting": "rabbit ear vein; [11]", "result": "1.7 ± 0.6"}, {"measurement": "Erythema", "setting": "rabbit ear vein; [11]", "result": "2.7 ± 0.6"}, {"measurement": "Edema", "setting": "rabbit ear vein; [12]", "result": "0.0 ± 0.0"}, {"measurement": "Erythema", "setting": "rabbit ear vein; [12]", "result": "0.0 ± 0.0"}, {"measurement": "Edema", "setting": "rabbit ear vein; [13]", "result": "2.0 ± 1.7"}, {"measurement": "Erythema", "setting": "rabbit ear vein; [13]", "result": "2.7 ± 0.6"}, {"measurement": "Histopathology", "setting": "rabbit ear vein; solution in acetate mannitol buffer, pH 4, Bolus dose, at the higher dose", "result": "Mild to severe effects seen at the higher"}, {"measurement": "tolerability when administered IV", "setting": "rabbit ear vein; solution, acetate mannitol buffer at pH 4", "result": "poorly tolerated"}, {"measurement": "pH at which charge is zero", "setting": "[1]; 0% Na Oleate", "result": 8.02}, {"measurement": "pH at which charge is zero", "setting": "[1]; 0.25% Na Oleate", "result": 7.87}, {"measurement": "pH at which charge is zero", "setting": "[1]; 0.5% Na Oleate", "result": 7.81}, {"measurement": "pH at which charge is zero", "setting": "[1]; 1% Na Oleate", "result": 7.54}, {"measurement": "zeta-potential", "setting": "[1]; pH 6.5, 0% Na Oleate", "result": 32.8}, {"measurement": "zeta-potential", "setting": "[1]; pH 6.5, 0.25% Na Oleate", "result": 36}, {"measurement": "zeta-potential", "setting": "[1]; pH 6.5, 0.5% Na Oleate", "result": 37.4}, {"measurement": "zeta-potential", "setting": "[1]; pH 6.5, 1% Na Oleate", "result": 24.5}, {"measurement": "zeta-potential", "setting": "[1]; pH 7.0, 0% Na Oleate", "result": 17.8}, {"measurement": "zeta-potential", "setting": "[1]; pH 7.0, 0.25% Na Oleate", "result": 28.1}, {"measurement": "zeta-potential", "setting": "[1]; pH 7.0, 0.5% Na Oleate", "result": 27.8}, {"measurement": "zeta-potential", "setting": "[1]; pH 7.0, 1% Na Oleate", "result": 23.8}, {"measurement": "zeta-potential", "setting": "[1]; pH 7.5, 0% Na Oleate", "result": 15.3}, {"measurement": "zeta-potential", "setting": "[1]; pH 7.5, 0.25% Na Oleate", "result": 7.24}, {"measurement": "zeta-potential", "setting": "[1]; pH 7.5, 0.5% Na Oleate", "result": 16.2}, {"measurement": "zeta-potential", "setting": "[1]; pH 7.5, 1% Na Oleate", "result": 4.87}, {"measurement": "zeta-potential", "setting": "[1]; pH 8.0, 0% Na Oleate", "result": 15}, {"measurement": "zeta-potential", "setting": "[1]; pH 8.0, 0.25% Na Oleate", "result": 2.83}, {"measurement": "zeta-potential", "setting": "[1]; pH 8.0, 0.5% Na Oleate", "result": 0.242}, {"measurement": "zeta-potential", "setting": "[1]; pH 8.0, 1% Na Oleate", "result": "−10.7"}, {"measurement": "zeta-potential", "setting": "[1]; pH 8.5, 0% Na Oleate", "result": "−16.7"}, {"measurement": "zeta-potential", "setting": "[1]; pH 8.5, 0.25% Na Oleate", "result": "−10"}, {"measurement": "zeta-potential", "setting": "[1]; pH 8.5, 0.5% Na Oleate", "result": "−26.8"}, {"measurement": "zeta-potential", "setting": "[1]; pH 8.5, 1% Na Oleate", "result": "−30.4"}, {"measurement": "zeta-potential", "setting": "[1]; pH 9.0, 0% Na Oleate", "result": "−26.5"}, {"measurement": "zeta-potential", "setting": "[1]; pH 9.0, 0.25% Na Oleate", "result": "−42.5"}, {"measurement": "zeta-potential", "setting": "[1]; pH 9.0, 0.5% Na Oleate", "result": "−42.1"}, {"measurement": "zeta-potential", "setting": "[1]; pH 9.0, 1% Na Oleate", "result": "−52.9"}]}]}
